For data set [1] the following is noted: ester bond, chlorobenzene.
The subject of data set [2] is K. pneumoniae MP-546. The data set is described as follows: Broth dilution MIC determination (CLSI), K. pneumoniae MP-546. The conditions noted are these: strain MP-546, broth dilution; for MIC: Klebsiella pneumoniae, MP546. Type of data set: cell-based. (In general: In broth dilution the organism is exposed to a series of concentrations in liquid medium.)
For data set [3], the system named is K. pneumoniae MP-648. Put plainly: Broth dilution MIC determination (CLSI), K. pneumoniae MP-648. The class given is cell-based. The conditions noted are these: strain MP-648, broth dilution; for MIC: Klebsiella pneumoniae, MP648.
The test system of data set [4] is P. aeruginosa MP-3. The data set is described as follows: Broth dilution MIC determination (CLSI), P. aeruginosa MP-3. The class given is cell-based. The conditions noted are these: strain MP-3, broth dilution; for MIC: Pseudomonas aeruginosa, MP3.
Data set [5] deals with A. baumannii MP-15. Put plainly: Broth dilution MIC determination (CLSI), A. baumannii MP-15. Type of data set: cell-based. Particulars: strain MP-15, broth dilution; for MIC: Acinetobacter baumannii, MP15, read-out: MIC A. baumanii MP-15.
Data set [6] has as its system S. aureus MP-12. The data set is described as follows: Broth dilution MIC determination (CLSI), S. aureus MP-12. The class given is cell-based. Particulars: strain MP-12, broth dilution; for MIC: Staphylococcus aureus, MP12.
For data set [7], the system named is E. coli MP-4. Put plainly: Broth dilution MIC determination (CLSI), E. coli MP-4. The class given is cell-based. Particulars: strain MP-4, broth dilution; for MIC: Escherichia coli, MP4, read-out: MIC E. coli MP-4.

Results on five molecules are retold here after patent US20220177508A1, “C10-Cyclic Substituted 13-Membered Macrolides and Uses Thereof” (Zikani Therapeutics, Inc., priority 2018, published 2022).

The structures appear in SMILES notation. Converted amounts (≈) assume the structure as drawn. Read-outs that look alike come from different tables or passages of the source.

In the case of `CO[C@]1(C)C[C@@H](C)CN(C(=O)OCc2ccccc2)[C@H](C2CCN(C(=O)OC(C)(C)C)CC2)COC(=O)[C@H](C)C(=O)[C@H](C)[C@H]1O[C@@H]1O[C@H](C)C[C@H](N(C)C)[C@H]1OC(=O)c1ccccc1`, in data set [1] (from CO[C@](C)(C[C@@H](C)CN(C(=O)OCc1ccccc1)[C@@H](CO)C1CCN(C(=O)OC(C)(C)C)CC1)[C@H](O[C@@H]1O[C@H](C)C[C@H](N(C)C)[C@H]1OC(=O)c1ccccc1)[C@@H](C)C1=C(C)C(=O)OC(C)(C)O1, 3.15 mM, 148.0 °C, 23.0 h), the ring closure, yield of all isomers was 29%.
`CO[C@]1(C)C[C@@H](C)CN(C)[C@H](c2ccc(Br)cc2)COC(=O)C(C)C(=O)[C@H](C)[C@H]1O[C@@H]1O[C@H](C)C[C@H](N(C)C)[C@H]1OC(=O)c1ccccc1` (some centres unmarked) returned a ring closure, yield of all isomers in data set [1] (from CO[C@](C)(C[C@@H](C)CN(C)[C@@H](CO)c1ccc(Br)cc1)[C@H](O[C@@H]1O[C@H](C)C[C@H](N(C)C)[C@H]1OC(=O)c1ccccc1)[C@@H](C)C1=C(C)C(=O)OC(C)(C)O1, 4.0 mM, 165.0 °C, 20.0 h) of 99%.
On to `CO[C@]1(C)C[C@@H](C)CN(C)[C@H](C2CN(C(=O)[C@H]3CCNC3)C2)COC(=O)C(C)(C)C(=O)[C@H](C)[C@H]1O[C@@H]1O[C@H](C)C[C@H](N(C)C)[C@H]1O` [Compound 181, (3R,6R,8R,9R,10R)-9-(((2S,3R,4S,6R)-4-(dimethylamino)-3-hydroxy-6-methyltetrahydro-2H-pyran-2-yl)oxy)-8-methoxy-4,6,8,10,12,12-hexamethyl-3-(1-((S)-pyrrolidine-3-carbonyl)azetidin-3-yl)-1-oxa-4-azacyclotridecane-11,13-dione], for which the MIC is more than 32 µg/mL in data set [2]; more than 32 µg/mL in data set [3]; more than 32 µg/mL in data set [4]; more than 32 µg/mL in data set [5]; 4 to 32 µg/mL (≈ 6.13 to 49 µM) in data set [6]; 4 to 32 µg/mL (≈ 6.13 to 49 µM) in data set [7].
On to `CO[C@]1(C)C[C@@H](C)CN(C)[C@H](C2CN(C(=O)CC(C)(C)CN(C)C)C2)COC(=O)C(C)(C)C(=O)[C@H](C)[C@H]1O[C@@H]1O[C@H](C)C[C@H](N(C)C)[C@H]1O` [Compound 183, (3R,6R,8R,9R,10R)-3-(1-(4-(dimethylamino)-3,3-dimethylbutanoyl)azetidin-3-yl)-9-(((2S,3R,4S,6R)-4-(dimethylamino)-3-hydroxy-6-methyltetrahydro-2H-pyran-2-yl)oxy)-8-methoxy-4,6,8,10,12,12-hexamethyl-1-oxa-4-azacyclotridecane-11,13-dione], for which the minimal inhibitory concentration (MIC) was 4 to 32 µg/mL (≈ 5.74 to 45.9 µM) in data set [2]; 4 to 32 µg/mL (≈ 5.74 to 45.9 µM) in data set [3]; more than 32 µg/mL in data set [4]; more than 32 µg/mL in data set [5]; 4 to 32 µg/mL (≈ 5.74 to 45.9 µM) in data set [6]; less than 4 µg/mL in data set [7].
For the molecule `CO[C@]1(C)C[C@@H](C)CN(C)[C@H](C2CC(N(C)CC(C)C)C2)COC(=O)C(C)(C)C(=O)[C@H](C)[C@H]1O[C@@H]1O[C@H](C)C[C@H](N(C)C)[C@H]1O` (stereo partly drawn) [Compound 187, (3R,6R,8R,9R,10R)-9-(((2S,3R,4S,6R)-4-(dimethylamino)-3-hydroxy-6-methyltetrahydro-2H-pyran-2-yl)oxy)-3-((1S,3S)-3-(isobutyl(methyl)amino)cyclobutyl)-8-methoxy-4,6,8,10,12,12-hexamethyl-1-oxa-4-azacyclotridecane-11,13-dione], the “MIC K. pneumoniae MP-546” value in data set [2] is “+++ (values less than or equal to 4 mg/L)”. For the same molecule, the “MIC K. pneumoniae MP-648” value in data set [3] was “++ (values of greater than 4 mg/L and less than or equal to 32 mg/L)”. In data set [4], the “MIC P aeruginosa MP-3” value is on record as “+ (values greater than 32 mg/L)”. Also, the “MIC A. baumanii MP-15” value in data set [5] is “+ (values greater than 32 mg/L)”. Also, the “MIC S. aureus MP-12” value in data set [6] was “+ (values greater than 32 mg/L)”. Moreover, in data set [7], the “MIC E. coli MP-4” value is on record as “+++ (values less than or equal to 4 mg/L)”.

In general, MIC refers to the lowest concentration that inhibits growth of the organism.
